Measured values from US12180145B2, “Fused cyclooctyne compounds and their use in metal-free click reactions” (Synaffix B.V., priority 2010, dated 2024).

Assays:
[1] = prior art cyclooctynes; cited from earlier work
[2] = Reaction kinetics of cycloaddition (SPAAC) with benzyl azide, followed by proton NMR; format: physicochemical
From the text: In a preferred embodiment, a compound of the Formula (IIa), (IIb) and/or (IIc), or a conjugate thereof as described above, is reacted with a compound comprising a 1,3-dipole or a 1,3-(hetero)diene. For example the cycloaddition of (IIa) with benzyl azide in aqueous conditions proceeds rapidly and cleanly to the corresponding triazole adducts with excellent reaction kinetics (k=0.09-0.28 M^−1 s^−1, depending on the solvent). […] Consequently, a mixture of the exo- and endo-compounds according to the invention may be applied in some applications, avoiding the need for separation of the exo- and endo-compounds and even further simplifying the synthesis of the compounds according to the invention.
The reaction kinetics for cycloaddition with the prototypical azide benzyl azide were investigated. Thus, compound endo-IIa.2 was dissolved in a 3:1 mixture of CD3CN and D2O and mixed with benzyl azide at a final concentration of 18 mM. […] A significant solvent effect was noticed because the same cycloaddition reaction in a 1:2 mixture of CD3CN and D2O gave rate constants of 0.28 and 0.25 M^−1 s^−1 for endo-IIa.2 and exo-IIa.2, respectively.

[3] = 3:1 mixture of CD3CN and D2O, final concentration 18 mM

SMILES	reaction rate constant k of cycloaddition with azide [1] [M⁻¹ s⁻¹]	second-order rate constant of cycloaddition with benzyl azide ([2]; 1:2 mixture of CD3CN and D2O) [M⁻¹ s⁻¹]	second-order rate constant of cycloaddition with benzyl azide [2, 3] [M⁻¹ s⁻¹]
O=C(O)CC1CCCCC#CC1(F)F (stereo not drawn) [DIFO3]	≤ 0.076	–	–
OC1Cc2ccccc2C#Cc2ccccc21 (stereo not drawn) [DIBO]	0.12	–	–
OC[C@H]1[C@H]2CCC#CCC[C@@H]12 [endo-IIa.2, endo-9-(hydroxymethyl)bicyclo[6.1.0]non-4-yne]	–	0.28	0.12
OCC1C2CCC#CCCC12 (stereo not drawn) [exo-IIa.2, 9-(hydroxymethyl)bicyclo[6.1.0]non-4-yne]	–	0.25	0.10
